Columns and labels:
CSNK1D = molecular target: T1, CSNK1D (Homo sapiens, UniProt P48730); assay: KINOMEscan 1 μM, CSNK1D; format: binding; details: 1000 nM; Entrez CSNK1D; read-out: Percent Control
T1 construct: purchased Eurofins DiscoverX KINOMEscan
Excerpt: (§1) Supplement cells-12-00287-s001.zip/File S2. KinomeScan data for the CAMKK2 probe and negative control.xlsx, sheet "SGC-CAMKK2-1" | column: Percent Control

KIT(D816V) = molecular target: T2, KIT(D816V) (Homo sapiens, UniProt P10721, D816V); assay: KINOMEscan 1 μM, KIT(D816V); format: binding; details: 1000 nM; Entrez KIT; read-out: Percent Control
T2 construct: purchased Eurofins DiscoverX KINOMEscan
Excerpt: as §1

PIK3CA(H1047L) = molecular target: T3, PIK3CA(H1047L) (Homo sapiens, UniProt P42336, H1047L); assay: KINOMEscan 1 μM, PIK3CA(H1047L); format: binding; details: 1000 nM; Entrez PIK3CA; read-out: Percent Control
T3 construct: purchased Eurofins DiscoverX KINOMEscan
Excerpt: as §1

EPHB6 = molecular target: T4, EPHB6 (Homo sapiens, UniProt O15197); assay: KINOMEscan 1 μM, EPHB6; format: binding; details: 1000 nM; Entrez EPHB6; read-out: Percent Control
T4 construct: purchased Eurofins DiscoverX KINOMEscan
Excerpt: as §1

S6K1 = molecular target: T5, S6K1 (Homo sapiens, UniProt P23443); assay: DiscoverX KINOMEscan binding assay at 1 μM, S6K1; details: S6K1 (RPS6KB1); Compound Concentration 1000 nM; read-out: Percent Control
T5 construct: purchased Eurofins DiscoverX KINOMEscan
Excerpt: as §1

NEK10 = molecular target: T6, NEK10 (Homo sapiens, UniProt Q6ZWH5); assay: KINOMEscan 1 μM, NEK10; format: binding; details: 1000 nM; Entrez NEK10; read-out: Percent Control
T6 construct: purchased Eurofins DiscoverX KINOMEscan
Excerpt: as §1

CLK4 = molecular target: T7, CLK4 (Homo sapiens, UniProt Q9HAZ1); assay: KINOMEscan 1 μM, CLK4; format: binding; details: 1000 nM; Entrez CLK4; read-out: Percent Control
T7 construct: purchased Eurofins DiscoverX KINOMEscan
Excerpt: as §1

EGFR(L858R) = molecular target: T8, EGFR(L858R) (Homo sapiens, UniProt P00533, L858R); assay: KINOMEscan 1 μM, EGFR(L858R); format: binding; details: 1000 nM; Entrez EGFR; read-out: Percent Control
T8 construct: purchased Eurofins DiscoverX KINOMEscan
Excerpt: as §1

CDKL5 = molecular target: T9, CDKL5 (Homo sapiens, UniProt O76039); assay: KINOMEscan 1 μM, CDKL5; format: binding; details: 1000 nM; Entrez CDKL5; read-out: Percent Control
T9 construct: purchased Eurofins DiscoverX KINOMEscan
Excerpt: as §1

[1] = molecular target: T10, JAK1(JH1domain-catalytic) (Homo sapiens, UniProt P23458); assay: KINOMEscan 1 μM, JAK1(JH1domain-catalytic); format: binding; details: 1000 nM; Entrez JAK1; read-out: Percent Control
T10 construct: JAK1(JH1domain-catalytic); purchased Eurofins DiscoverX KINOMEscan
Excerpt: as §1

MAPKAPK5 = molecular target: T11, MAPKAPK5 (Homo sapiens, UniProt Q8IW41); assay: KINOMEscan 1 μM, MAPKAPK5; format: binding; details: 1000 nM; Entrez MAPKAPK5; read-out: Percent Control
T11 construct: purchased Eurofins DiscoverX KINOMEscan
Excerpt: as §1

MELK = molecular target: T12, MELK (Homo sapiens, UniProt Q14680); assay: KINOMEscan 1 μM, MELK; format: binding; details: 1000 nM; Entrez MELK; read-out: Percent Control
T12 construct: purchased Eurofins DiscoverX KINOMEscan
Excerpt: as §1

[2] = molecular target: T13, RPS6KA5(Kin.Dom.1-N-terminal) (Homo sapiens, UniProt O75582); assay: KINOMEscan 1 μM, RPS6KA5(Kin.Dom.1-N-terminal); format: binding; details: 1000 nM; Entrez RPS6KA5; read-out: Percent Control
T13 construct: RPS6KA5(Kin.Dom.1-N-terminal); purchased Eurofins DiscoverX KINOMEscan
Excerpt: as §1

CAMK4 = molecular target: T14, CAMK4 (Homo sapiens, UniProt Q16566); assay: KINOMEscan 1 μM, CAMK4; format: binding; details: 1000 nM; Entrez CAMK4; read-out: Percent Control
T14 construct: purchased Eurofins DiscoverX KINOMEscan
Excerpt: as §1

EPHB2 = molecular target: T15, EPHB2 (Homo sapiens, UniProt P29323); assay: KINOMEscan 1 μM, EPHB2; format: binding; details: 1000 nM; Entrez EPHB2; read-out: Percent Control
T15 construct: purchased Eurofins DiscoverX KINOMEscan
Excerpt: as §1

AMPK-alpha1 = molecular target: T16, AMPK-alpha1 (Homo sapiens, UniProt Q13131); assay: KINOMEscan 1 μM, AMPK-alpha1; format: binding; details: 1000 nM; Entrez PRKAA1; read-out: Percent Control
T16 construct: purchased Eurofins DiscoverX KINOMEscan
Excerpt: as §1

FGFR3 = molecular target: T17, FGFR3 (Homo sapiens, UniProt P22607); assay: KINOMEscan 1 μM, FGFR3; format: binding; details: 1000 nM; Entrez FGFR3; read-out: Percent Control
T17 construct: purchased Eurofins DiscoverX KINOMEscan
Excerpt: as §1

CSK = molecular target: T18, CSK (Homo sapiens, UniProt P41240); assay: KINOMEscan at 1 μM, CSK; format: binding; details: 1000 nM, read-out: Percent Control
T18 construct: purchased Eurofins DiscoverX KINOMEscan
Excerpt: (§2) Supplement cells-12-00287-s001.zip/File S2. KinomeScan data for the CAMKK2 probe and negative control.xlsx, sheet "SGC-CAMKK2-1N" | column: Percent Control

PRKG1 = molecular target: T19, PRKG1 (Homo sapiens, UniProt Q13976); assay: KINOMEscan binding assay at 1 μM, PRKG1; details: Compound Concentration 1000 nM; read-out: Percent Control
T19 construct: purchased Eurofins DiscoverX KINOMEscan
Excerpt: as §2

DYRK2 = molecular target: T20, DYRK2 (Homo sapiens, UniProt Q92630); assay: KINOMEscan at 1 μM, DYRK2; format: binding; details: 1000 nM, read-out: Percent Control
T20 construct: purchased Eurofins DiscoverX KINOMEscan
Excerpt: as §2

PIK3CA(E542K) = molecular target: T21, PIK3CA(E542K) (Homo sapiens, UniProt P42336, E542K); assay: KINOMEscan at 1 μM, PIK3CA(E542K); format: binding; details: 1000 nM, read-out: Percent Control
T21 construct: purchased Eurofins DiscoverX KINOMEscan
Excerpt: as §2

FLT3(N841I) = molecular target: T22, FLT3(N841I) (Homo sapiens, UniProt P36888, N841I); assay: KINOMEscan binding assay at 1 μM, FLT3(N841I); details: Compound Concentration 1000 nM; read-out: Percent Control
T22 construct: purchased Eurofins DiscoverX KINOMEscan
Excerpt: as §2

PIK3CA(E545K) = molecular target: T23, PIK3CA(E545K) (Homo sapiens, UniProt P42336, E545K); assay: KINOMEscan at 1 μM, PIK3CA(E545K); format: binding; details: 1000 nM, read-out: Percent Control
T23 construct: purchased Eurofins DiscoverX KINOMEscan
Excerpt: as §2

MEK2 = molecular target: T24, MEK2 (Homo sapiens, UniProt P36507); assay: KINOMEscan at 1 μM, MEK2; format: binding; details: 1000 nM, read-out: Percent Control
T24 construct: purchased Eurofins DiscoverX KINOMEscan
Excerpt: as §2

CLK1 = molecular target: T25, CLK1 (Homo sapiens, UniProt P49759); assay: KINOMEscan at 1 μM, CLK1; format: binding; details: 1000 nM, read-out: Percent Control
T25 construct: purchased Eurofins DiscoverX KINOMEscan
Excerpt: as §2

ALK = molecular target: T26, ALK (Homo sapiens, UniProt Q9UM73); assay: KINOMEscan at 1 μM, ALK; format: binding; details: 1000 nM, read-out: Percent Control
T26 construct: purchased Eurofins DiscoverX KINOMEscan
Excerpt: as §2

DYRK1A = molecular target: T27, DYRK1A (Homo sapiens, UniProt Q13627); assay: KINOMEscan at 1 μM, DYRK1A; format: binding; details: 1000 nM, read-out: Percent Control
T27 construct: purchased Eurofins DiscoverX KINOMEscan
Excerpt: as §2

SRC = molecular target: T28, SRC (Homo sapiens, UniProt P12931); assay: KINOMEscan at 1 μM, SRC; format: binding; details: 1000 nM, read-out: Percent Control
T28 construct: purchased Eurofins DiscoverX KINOMEscan
Excerpt: as §2

MARK1 = molecular target: T29, MARK1 (Homo sapiens, UniProt Q9P0L2); assay: KINOMEscan at 1 μM, MARK1; format: binding; details: 1000 nM, read-out: Percent Control
T29 construct: purchased Eurofins DiscoverX KINOMEscan
Excerpt: as §2

YANK3 = molecular target: T30, YANK3 (Homo sapiens, UniProt Q86UX6); assay: KINOMEscan at 1 μM, YANK3; format: binding; details: 1000 nM, read-out: Percent Control
T30 construct: purchased Eurofins DiscoverX KINOMEscan
Excerpt: as §2

HPK1 = molecular target: T31, HPK1 (Homo sapiens, UniProt Q92918); assay: KINOMEscan binding assay at 1 μM, HPK1; details: Compound Concentration 1000 nM; read-out: Percent Control
T31 construct: purchased Eurofins DiscoverX KINOMEscan
Excerpt: as §2

MUSK = molecular target: T32, MUSK (Homo sapiens, UniProt O15146); assay: KINOMEscan binding assay at 1 μM, MUSK; details: Compound Concentration 1000 nM; read-out: Percent Control
T32 construct: purchased Eurofins DiscoverX KINOMEscan
Excerpt: as §2

T3 sequence (P42336 whole entry H1047L): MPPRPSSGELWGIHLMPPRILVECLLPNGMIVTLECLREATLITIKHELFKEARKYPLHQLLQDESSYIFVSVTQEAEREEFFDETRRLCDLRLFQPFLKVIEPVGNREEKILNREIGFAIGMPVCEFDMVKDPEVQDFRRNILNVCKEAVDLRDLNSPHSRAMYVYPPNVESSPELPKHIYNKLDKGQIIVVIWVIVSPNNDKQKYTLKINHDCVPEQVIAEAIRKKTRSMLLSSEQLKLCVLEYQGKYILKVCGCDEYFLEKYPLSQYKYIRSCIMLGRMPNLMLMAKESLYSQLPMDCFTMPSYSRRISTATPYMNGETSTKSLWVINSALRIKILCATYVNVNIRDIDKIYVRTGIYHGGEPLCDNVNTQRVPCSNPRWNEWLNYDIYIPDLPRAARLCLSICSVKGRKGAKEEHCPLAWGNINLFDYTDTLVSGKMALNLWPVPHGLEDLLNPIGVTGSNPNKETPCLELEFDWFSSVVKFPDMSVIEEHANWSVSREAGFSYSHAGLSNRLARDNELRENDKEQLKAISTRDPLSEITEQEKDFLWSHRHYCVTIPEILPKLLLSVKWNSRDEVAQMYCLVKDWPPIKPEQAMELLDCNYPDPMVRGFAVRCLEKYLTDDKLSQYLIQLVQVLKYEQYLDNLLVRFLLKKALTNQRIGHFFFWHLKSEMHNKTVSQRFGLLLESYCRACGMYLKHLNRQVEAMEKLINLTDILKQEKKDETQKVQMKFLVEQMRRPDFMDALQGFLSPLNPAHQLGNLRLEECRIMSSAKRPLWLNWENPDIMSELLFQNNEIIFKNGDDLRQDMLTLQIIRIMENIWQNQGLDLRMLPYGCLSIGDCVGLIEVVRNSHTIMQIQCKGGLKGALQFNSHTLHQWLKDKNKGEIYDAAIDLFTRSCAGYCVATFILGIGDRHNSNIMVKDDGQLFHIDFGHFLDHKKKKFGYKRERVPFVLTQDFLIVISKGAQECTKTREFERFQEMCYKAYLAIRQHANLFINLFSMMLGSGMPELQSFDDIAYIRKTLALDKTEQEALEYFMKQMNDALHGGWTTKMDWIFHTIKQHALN
T17 sequence (P22607 23-806): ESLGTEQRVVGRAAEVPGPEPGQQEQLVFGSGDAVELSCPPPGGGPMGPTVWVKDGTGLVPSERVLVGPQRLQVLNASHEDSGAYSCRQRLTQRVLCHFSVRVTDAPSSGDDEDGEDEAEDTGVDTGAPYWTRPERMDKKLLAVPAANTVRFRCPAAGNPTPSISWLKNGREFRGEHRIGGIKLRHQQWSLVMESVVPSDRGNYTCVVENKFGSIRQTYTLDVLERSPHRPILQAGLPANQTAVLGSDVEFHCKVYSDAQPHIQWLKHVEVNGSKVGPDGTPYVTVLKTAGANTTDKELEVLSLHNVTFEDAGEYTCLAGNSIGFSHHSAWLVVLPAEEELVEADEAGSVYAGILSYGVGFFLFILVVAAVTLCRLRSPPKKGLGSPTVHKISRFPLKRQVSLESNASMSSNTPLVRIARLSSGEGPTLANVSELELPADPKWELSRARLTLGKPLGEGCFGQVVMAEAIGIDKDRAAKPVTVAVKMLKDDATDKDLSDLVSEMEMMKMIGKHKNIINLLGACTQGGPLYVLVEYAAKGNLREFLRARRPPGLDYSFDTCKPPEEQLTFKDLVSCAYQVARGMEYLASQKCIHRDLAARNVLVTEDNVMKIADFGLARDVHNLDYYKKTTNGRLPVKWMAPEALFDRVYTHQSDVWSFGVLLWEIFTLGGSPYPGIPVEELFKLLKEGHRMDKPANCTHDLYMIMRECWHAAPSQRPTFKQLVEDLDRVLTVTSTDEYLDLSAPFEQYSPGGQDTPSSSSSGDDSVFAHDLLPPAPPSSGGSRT
T20 sequence (Q92630 whole entry): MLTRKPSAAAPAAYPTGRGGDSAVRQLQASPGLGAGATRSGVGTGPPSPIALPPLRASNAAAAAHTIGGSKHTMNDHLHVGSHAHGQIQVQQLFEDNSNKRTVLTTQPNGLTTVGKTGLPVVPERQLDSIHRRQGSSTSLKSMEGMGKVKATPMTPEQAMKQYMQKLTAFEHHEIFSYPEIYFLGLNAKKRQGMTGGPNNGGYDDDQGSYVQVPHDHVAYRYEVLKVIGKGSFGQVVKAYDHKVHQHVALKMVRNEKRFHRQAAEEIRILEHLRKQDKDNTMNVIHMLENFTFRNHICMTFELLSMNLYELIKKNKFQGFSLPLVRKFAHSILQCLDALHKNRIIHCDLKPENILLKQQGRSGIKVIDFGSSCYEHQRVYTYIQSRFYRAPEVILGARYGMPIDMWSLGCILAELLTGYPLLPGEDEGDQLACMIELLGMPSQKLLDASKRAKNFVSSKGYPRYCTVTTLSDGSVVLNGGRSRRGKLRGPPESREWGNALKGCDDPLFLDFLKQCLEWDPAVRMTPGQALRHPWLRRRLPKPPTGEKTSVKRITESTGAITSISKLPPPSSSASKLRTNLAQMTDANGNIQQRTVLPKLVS
T1 sequence (P48730 whole entry): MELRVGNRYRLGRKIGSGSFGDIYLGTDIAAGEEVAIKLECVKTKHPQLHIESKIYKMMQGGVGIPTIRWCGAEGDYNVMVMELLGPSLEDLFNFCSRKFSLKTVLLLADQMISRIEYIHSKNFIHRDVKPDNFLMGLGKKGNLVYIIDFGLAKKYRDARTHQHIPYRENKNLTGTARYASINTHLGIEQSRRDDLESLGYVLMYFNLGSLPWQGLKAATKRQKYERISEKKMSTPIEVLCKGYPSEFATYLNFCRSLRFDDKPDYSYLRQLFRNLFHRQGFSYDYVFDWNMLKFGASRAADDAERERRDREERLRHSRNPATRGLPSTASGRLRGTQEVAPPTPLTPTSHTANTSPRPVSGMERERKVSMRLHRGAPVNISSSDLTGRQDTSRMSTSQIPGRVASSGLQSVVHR
T25 sequence (P49759 whole entry): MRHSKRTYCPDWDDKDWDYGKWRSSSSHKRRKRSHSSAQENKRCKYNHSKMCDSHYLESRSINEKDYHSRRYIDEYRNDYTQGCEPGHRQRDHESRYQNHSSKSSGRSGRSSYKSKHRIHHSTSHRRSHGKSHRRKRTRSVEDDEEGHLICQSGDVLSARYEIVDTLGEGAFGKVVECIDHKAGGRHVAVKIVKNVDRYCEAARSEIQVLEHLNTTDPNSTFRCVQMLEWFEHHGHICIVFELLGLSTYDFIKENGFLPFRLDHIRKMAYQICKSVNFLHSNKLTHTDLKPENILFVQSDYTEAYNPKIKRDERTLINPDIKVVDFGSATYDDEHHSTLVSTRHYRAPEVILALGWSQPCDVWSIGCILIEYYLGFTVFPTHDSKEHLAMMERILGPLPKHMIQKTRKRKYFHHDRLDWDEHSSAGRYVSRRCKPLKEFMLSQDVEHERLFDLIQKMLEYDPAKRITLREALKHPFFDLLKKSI
T4 sequence (O15197 32-1021): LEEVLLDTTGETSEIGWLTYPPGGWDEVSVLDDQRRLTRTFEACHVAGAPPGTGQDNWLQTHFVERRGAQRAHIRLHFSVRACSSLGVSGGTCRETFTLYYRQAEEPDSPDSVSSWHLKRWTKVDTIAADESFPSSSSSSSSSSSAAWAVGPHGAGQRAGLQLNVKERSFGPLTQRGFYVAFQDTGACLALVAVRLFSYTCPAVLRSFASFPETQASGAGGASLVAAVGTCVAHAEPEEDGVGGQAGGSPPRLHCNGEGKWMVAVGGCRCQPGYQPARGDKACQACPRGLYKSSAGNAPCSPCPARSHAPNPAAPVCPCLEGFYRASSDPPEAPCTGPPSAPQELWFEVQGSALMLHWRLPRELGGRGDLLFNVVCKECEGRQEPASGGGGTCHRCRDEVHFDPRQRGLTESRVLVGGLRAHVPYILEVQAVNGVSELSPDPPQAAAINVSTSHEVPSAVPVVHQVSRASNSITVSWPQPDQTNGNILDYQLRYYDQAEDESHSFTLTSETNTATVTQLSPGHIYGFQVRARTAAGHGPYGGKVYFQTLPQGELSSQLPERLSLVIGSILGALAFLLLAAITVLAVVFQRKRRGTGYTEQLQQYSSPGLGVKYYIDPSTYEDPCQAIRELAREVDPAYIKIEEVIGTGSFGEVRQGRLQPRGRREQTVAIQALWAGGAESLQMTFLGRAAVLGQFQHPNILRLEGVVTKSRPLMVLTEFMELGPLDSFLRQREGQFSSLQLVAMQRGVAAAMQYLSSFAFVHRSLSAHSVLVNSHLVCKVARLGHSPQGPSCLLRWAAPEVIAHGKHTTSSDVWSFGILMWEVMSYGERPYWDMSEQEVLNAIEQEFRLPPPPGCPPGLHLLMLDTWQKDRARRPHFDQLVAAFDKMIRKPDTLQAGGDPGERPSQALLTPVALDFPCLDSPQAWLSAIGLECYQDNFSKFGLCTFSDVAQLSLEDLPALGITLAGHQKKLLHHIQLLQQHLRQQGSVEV
T10 sequence (P23458 854-1154 limits assumed): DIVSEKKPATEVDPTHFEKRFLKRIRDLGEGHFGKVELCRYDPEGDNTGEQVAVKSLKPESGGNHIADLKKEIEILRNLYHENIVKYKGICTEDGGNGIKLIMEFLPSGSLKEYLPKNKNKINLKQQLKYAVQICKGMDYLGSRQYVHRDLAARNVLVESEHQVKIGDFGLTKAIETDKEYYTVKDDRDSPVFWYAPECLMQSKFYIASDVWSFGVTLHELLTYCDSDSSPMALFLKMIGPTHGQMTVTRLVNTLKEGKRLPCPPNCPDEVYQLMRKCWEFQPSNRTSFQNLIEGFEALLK
T21 sequence (P42336 whole entry E542K): as the sequence (P42336 whole entry H1047L) above, with E542K, L1047H counted along it
T23 sequence (P42336 whole entry E545K): as the sequence (P42336 whole entry H1047L) above, with E545K, L1047H counted along it

Cc1cccc(-c2cnc3occ(-c4ccc(C(=O)O)c(C5CCCC5)c4)c3c2)c1 [SGC-CAMKK2-1 (YL-36)]
remaining binding at 1 µM (CSNK1D): 100%
remaining binding at 1 µM (KIT(D816V)): 100%
remaining binding at 1 µM (PIK3CA(H1047L)): 78%
remaining binding at 1 µM (EPHB6): 43%
remaining binding at 1 µM (S6K1): 100%
remaining binding at 1 µM (NEK10): 88%
remaining binding at 1 µM (CLK4): 100%
remaining binding at 1 µM (EGFR(L858R)): 77%
remaining binding at 1 µM (CDKL5): 100%
remaining binding at 1 µM [1]: 85%
remaining binding at 1 µM (MAPKAPK5): 100%
remaining binding at 1 µM (MELK): 79%
remaining binding at 1 µM [2]: 98%
remaining binding at 1 µM (CAMK4): 100%
remaining binding at 1 µM (EPHB2): 100%
remaining binding at 1 µM (AMPK-alpha1): 95%
remaining binding at 1 µM (FGFR3): 95%

O=C(O)c1ccc(-c2coc3ncc(-c4ccccc4)cc23)cc1Cl [SGC-CAMKK2-1N (UNC-YL-83)]
remaining binding at 1 µM (CSK): 60%
remaining binding at 1 µM (PRKG1): 100%
remaining binding at 1 µM (DYRK2): 100%
remaining binding at 1 µM (PIK3CA(E542K)): 81%
remaining binding at 1 µM (FLT3(N841I)): 100%
remaining binding at 1 µM (PIK3CA(E545K)): 93%
remaining binding at 1 µM (MEK2): 88%
remaining binding at 1 µM (CLK1): 79%
remaining binding at 1 µM (ALK): 66%
remaining binding at 1 µM (DYRK1A): 71%
remaining binding at 1 µM (SRC): 97%
remaining binding at 1 µM (MARK1): 97%
remaining binding at 1 µM (YANK3): 70%
remaining binding at 1 µM (HPK1): 100%
remaining binding at 1 µM (MUSK): 100%
